In publication PMC10132538, “Regulation of the two-pore domain potassium channel, THIK-1 and THIK-2, by G protein coupled receptors” (PLOS ONE, 2023):
Like-named read-outs stand apart in the source and are kept apart here.

Tests used:
THIK-1 channel [1] = assay: Basal current (I0) density of THIK-1 channel at 0 mV in HEK293T cells; type: cell-based; conditions: for Basal current (I0) density of THIK-1 channel: 0 mV, before agonist; for Basal current I0: THIK-1 & M1R
Source text: (§1) Coding region of mGu2 (M1-P840) was amplified by conventional PCR with designed primers and the resulting product was subcloned into pEYFP-N1 vector at the BglII and EcoRI sites. The cDNAs for mouse THIK-2 channel and dimeric THIK channels were subcloned into pcDNA3.1(-) vector. To increase the surface membrane expression of the THIK-2 channel, 29 residues (Ser2-Ser30) were removed (ΔN-THIK-2). […] Ci-VSP-IRES-GFP vector was kindly gifted by Dr. Y. Okamura (Osaka University, Osaka, Japan). HEK293T cells or CHO-K1 cells were seeded on glasses and transfected with the plasmid DNAs for THIK channels, receptors and a transfection marker of yellow fluorescent protein (YFP). Electrophysiological experiments were performed 24–72 h after the transfection. […] Pertussis toxin (PTX) was purchased from Wako (Osaka, Japan). […] All reagents were dissolved at high concentration and stored at -20 °C as the stock solutions. The stock reagent solution was diluted at concentrations for the electrophysiological experiments. PTX was solved in the culture medium (final concentration, 300 ng/mL) and cells were incubated in it for more than 16 h. U73122 or U73343 (final concentration, 2 μM each) was dissolved in Hanks’ Balanced Salt Solution (HBSS, Invitrogen, Carlsbad, CA, USA) supplemented with 1 mM Ca^2+ and 0.3 mM Mg^2+. Cells were incubated in HBSS with U73122 or U73343 for 10 min at room temperature before the whole cell current recording.
(§2) Composition of bath solution was (in mM) 140 NaCl, 4 KCl, 1 CaCl2, 0.3 MgCl2, 10 HEPES (pH 7.4 adjusted with NaOH). The pipette solution for whole cell patch clamp experiments contained (mM) 130 KCl, 5 Na2-ATP, 3 EGTA, 0.1 CaCl2, 10 HEPES, 4 MgCl2, (pH 7.3 adjusted with KOH). GTP (0.3 mM) was supplemented in the pipette solution. Once the whole cell configuration was established, the cell was held at -80mV and ramp pulses (-120mV to +40mV for 0.4 sec) were applied every 5 sec. Various concentrations of the agonists were applied using a fast perfusion system (VC77SP, Warner Instruments, Hamden, CT, USA). The PKC inhibitor chelerythrine was included in the pipette solution.
(§3) The amplitude of the THIK-1 channel current at 0 mV was measured from every trace induced by the ramp pulse protocol to minimize the fraction of non-selective cationic leak current. The current amplitude before the agonist application was set as the basal current amplitude (I0). The effects of GPCRs on the THIK-1 channel were evaluated as the ratio of the current amplitude after the agonist application to I0 (Iagonist/I0). The EC50 values were estimated by fitting the concentration response curve to a Hill equation (Origin2016; OriginLab, Northampton, MA, USA). […] The effects of A2aR on the Gi/o-R-induced current increase of the THIK-1 channel was estimated as follows. […] All data are shown as means and S.D. The statistical significance between two or more than two groups was estimated by unpaired Student’s t-test or by a one-way analysis of variance (ANOVA) followed by Tukey’s test, respectively. […] Values of p≤ 0.05 were considered as statistically significant (***:p≤0.001, **:0.001<p≤0.01, *:0.01<p≤0.05, n.s.:p>0.05).

[2] = biological target: T1, M1R-YFP / ΔN-THIK-2 channel (Homo sapiens, UniProt P11229); assay: M1R-YFP-induced increase of ΔN-THIK-2 channel current in CHO-K1 cells; type: cell-based, mouse; conditions: oxo-M 10 μM
T1 construct: expressed in transfected cells; host or cells: CHO-K1
T1 sequence (P11229 1-460): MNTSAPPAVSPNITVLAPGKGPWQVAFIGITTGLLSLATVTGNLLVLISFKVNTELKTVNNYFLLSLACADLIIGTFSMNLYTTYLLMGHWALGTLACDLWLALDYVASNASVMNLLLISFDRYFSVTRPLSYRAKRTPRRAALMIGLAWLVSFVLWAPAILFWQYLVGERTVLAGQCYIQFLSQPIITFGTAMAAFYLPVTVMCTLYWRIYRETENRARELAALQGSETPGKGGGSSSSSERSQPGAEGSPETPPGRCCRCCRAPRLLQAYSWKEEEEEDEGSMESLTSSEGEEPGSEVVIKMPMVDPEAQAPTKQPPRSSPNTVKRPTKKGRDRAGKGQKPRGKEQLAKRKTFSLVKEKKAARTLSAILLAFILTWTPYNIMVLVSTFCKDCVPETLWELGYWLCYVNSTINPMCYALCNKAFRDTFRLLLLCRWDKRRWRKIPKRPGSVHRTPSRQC
Source text: as §1, with “Cells were incubated in HBSS with U73122 or U73343 for 10 min at room temperature before the whole cell current recording.” left out

M1R = biological target: T2, M1R (Homo sapiens, UniProt P11229); assay: M1R-induced increase of THIK-1 channel current, whole cell patch clamp in HEK293T cells; type: cell-based; conditions: for Ioxo/I0: oxo-M 10 μM
T2 construct: expressed in transfected cells; host or cells: HEK293T
T2 sequence (P11229 1-460): T1 sequence (P11229 1-460)
Source text: as §1, §2, §3

[3] = tested on: endogenously expressed channels in HEK293T cells; assay: Effect of receptor stimulation on the endogenous current in HEK293T cells without THIK-1; type: cell-based; conditions: no THIK-1
Source text: The amplitude of the current increase at the 15th trace (ΔI15th) after the application of GABA or oxo-M were normalized to that at the 5th traces (ΔI5th) with or without additional activation of A2aR (ΔI15th/ΔI5th).
The current density at 0 mV (I0) in HEK293T cell transfected with indicated receptors and the effects of the receptor stimulation are shown as Mean and S.D.

M3R = biological target: T3, M3R (Homo sapiens, UniProt P20309); assay: M3R-induced increase of THIK-1 channel current, whole cell patch clamp in HEK293T cells; type: cell-based
T3 construct: expressed in transfected cells; host or cells: HEK293T
T3 sequence (P20309 whole entry): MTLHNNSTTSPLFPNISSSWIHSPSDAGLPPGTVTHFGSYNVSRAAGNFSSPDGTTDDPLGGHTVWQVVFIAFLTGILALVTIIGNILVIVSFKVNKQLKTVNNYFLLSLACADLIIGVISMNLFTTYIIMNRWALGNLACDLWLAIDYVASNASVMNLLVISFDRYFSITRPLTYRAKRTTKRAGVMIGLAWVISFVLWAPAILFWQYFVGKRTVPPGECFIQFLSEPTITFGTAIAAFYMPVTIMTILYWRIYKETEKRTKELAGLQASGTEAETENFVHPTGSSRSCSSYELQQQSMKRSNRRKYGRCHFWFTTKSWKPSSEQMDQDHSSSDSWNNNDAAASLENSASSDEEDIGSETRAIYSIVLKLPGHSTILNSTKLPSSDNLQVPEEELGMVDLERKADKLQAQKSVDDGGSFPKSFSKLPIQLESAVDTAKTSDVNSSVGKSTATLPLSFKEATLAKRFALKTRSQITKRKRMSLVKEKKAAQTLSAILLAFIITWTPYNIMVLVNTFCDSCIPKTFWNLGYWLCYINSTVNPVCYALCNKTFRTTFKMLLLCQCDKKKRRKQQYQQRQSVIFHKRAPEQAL
Source text: as §1, with “PTX was solved in the culture medium (final concentration, 300 ng/mL) and cells were incubated in it for more than 16 h. U73122 or U73343 (final concentration, 2 μM each) was dissolved in Hanks’ Balanced Salt Solution (HBSS, Invitrogen, Carlsbad, CA, USA) supplemented with 1 mM Ca^2+ and 0.3 mM Mg^2+. Cells were incubated in HBSS with U73122 or U73343 for 10 min at room temperature before the whole cell current recording.” left out
(§4) The amplitude of the THIK-1 channel current at 0 mV was measured from every trace induced by the ramp pulse protocol to minimize the fraction of non-selective cationic leak current. […] The effects of GPCRs on the THIK-1 channel were evaluated as the ratio of the current amplitude after the agonist application to I0 (Iagonist/I0). […]

M2R = biological target: T4, M2R (Homo sapiens, UniProt P08172); assay: M2R-induced increase of THIK-1 channel current, whole cell patch clamp in HEK293T cells; type: cell-based
T4 construct: expressed in transfected cells; host or cells: HEK293T
T4 sequence (P08172 1-466): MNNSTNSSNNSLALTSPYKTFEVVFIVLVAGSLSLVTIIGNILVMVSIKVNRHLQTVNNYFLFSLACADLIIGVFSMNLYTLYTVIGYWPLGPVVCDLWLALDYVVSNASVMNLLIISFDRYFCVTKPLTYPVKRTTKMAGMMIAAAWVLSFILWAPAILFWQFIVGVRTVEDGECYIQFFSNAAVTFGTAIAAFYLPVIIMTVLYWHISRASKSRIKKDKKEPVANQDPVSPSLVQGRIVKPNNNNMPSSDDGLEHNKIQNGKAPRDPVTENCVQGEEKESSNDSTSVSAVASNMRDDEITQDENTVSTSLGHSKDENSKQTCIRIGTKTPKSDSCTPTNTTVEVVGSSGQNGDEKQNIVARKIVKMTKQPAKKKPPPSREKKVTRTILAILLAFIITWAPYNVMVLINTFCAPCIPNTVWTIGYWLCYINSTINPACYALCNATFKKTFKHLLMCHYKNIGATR
Source text: as §1, with “PTX was solved in the culture medium (final concentration, 300 ng/mL) and cells were incubated in it for more than 16 h. U73122 or U73343 (final concentration, 2 μM each) was dissolved in Hanks’ Balanced Salt Solution (HBSS, Invitrogen, Carlsbad, CA, USA) supplemented with 1 mM Ca^2+ and 0.3 mM Mg^2+. Cells were incubated in HBSS with U73122 or U73343 for 10 min at room temperature before the whole cell current recording.” left out
as §4

THIK-1 channel [4] = tested on: THIK-1 channel; set-up: method as in PMID 24081450; conditions: cited from earlier work
THIK-1 channel [5] = tested on: THIK-1 channel; set-up: method as in PMID 34928298; conditions: cited from earlier work
[6] = chelerythrine 3 μM in pipette solution
[7] = chelerythrine 10 μM in pipette solution
[8] = chelerythrine 30 μM in pipette solution
[9] = concentration response of THIK-1 current increase
[10] = concentration response of THIK-1 current increase (Iagonist/I0), Hill fit

Compound: COc1ccc2c(c1)CC[C@@H]1[C@@H]2CC[C@]2(C)[C@@H](NCCCCCCN3C(=O)CCC3=O)CC[C@@H]12 [U73343]
- Basal current (I0) density of THIK-1 channel (THIK-1 channel [1]; THIK-1 + M1R, PLC reagent 2 μM 10 min): 46.5 ± 22.3 (10)^n.s pA/pF
- Basal current (I0) density of THIK-1 channel (THIK-1 channel [1]; THIK-1 + M3R, PLC reagent 2 μM 10 min): 113.3 ± 122.1 (7)^n.s pA/pF
- Basal current (I0) density of THIK-1 channel (THIK-1 channel [1]; THIK-1 + mGlu1, PLC reagent 2 μM 10 min): 121.0 ± 104.7 (12)^n.s pA/pF
- effect of M1R-YFP on ΔN-THIK-2 channel after PLC reagent [2]: not

Compound: COc1ccc2c(c[n+](C)c3c4cc5c(cc4ccc23)OCO5)c1OC [chelerythrine, Chelerythrine]
- Basal current I0 (THIK-1 channel [1]; [6]): 43.1 ± 46.8 ^n.s. pA/pF
- Basal current I0 (THIK-1 channel [1]; [7]): 56.4 ± 46.7 ^n.s. pA/pF
- Basal current I0 (THIK-1 channel [1]; [8]): 22.8 ± 15.5 ^n.s. pA/pF
- effect of PKC inhibitor on the effect of M1R (M1R; 3–30 μM in the pipette solution): did not inhibit the effect of M1R
- Ioxo/I0 (M1R; [6]): 4.4 ± 2.4 ^n.s.
- Ioxo/I0 (M1R; [7]): 2.2 ± 0.6 ^n.s.
- Ioxo/I0 (M1R; [8]): 2.7 ± 1.0 ^n.s.

Compound: C[N+](C)(C)CC#CCN1CCCC1=O [oxo-M, oxotremorine-M]
- Effect of agonist (Iagonist/I0) ([3]; HEK293T transfected with M1R): 0.95 ± 0.15
- Effect of agonist (Iagonist/I0) ([3]; HEK293T transfected with M2R): 0.97 ± 0.12
- Effect of agonist (Iagonist/I0) ([3]; HEK293T transfected with M3R): 1.01 ± 0.13
- n; Hill coefficient (M3R; [9]): 1.07 ± 0.43
- EC50 (M3R; [10]): 400 ± 310 nM
- EC50 (M1R; concentration response of THIK-1 current increase (Iagonist/I0), Hill fit, HEK293T): 270 ± 160 nM
- n; Hill coefficient (M1R; concentration response of THIK-1 current increase, HEK293T): 1.14 ± 0.22
- Ioxo/I0 (M1R; chelerythrine 0 μM (control of Table 3)): 2.8 ± 1.1
- n; Hill coefficient (M2R; [9]): 1.54 ± 0.37
- EC50 (M2R; [10]): 62700 ± 35800 nM

Compound: CCCCCCCCCCCCCC(=O)O[C@@H]1[C@@H](C)[C@@]2(O)[C@@H](C=C(CO)C[C@]3(O)C(=O)C(C)=C[C@@H]23)[C@@H]2C(C)(C)[C@]12OC(C)=O [phorbol myristate acetate]
- activation of the THIK-1 channel (THIK-1 channel [4]): did not activate

Compound: phosphatidyl inositol bisphosphate [PIP2]
- activation of the THIK-1 channel (THIK-1 channel [5]): directly activate
